This passage reports TGI results from PubChem BioAssay (NCI).

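Cells were grown in 96-well plates and exposed to each compound for 48 hours at five concentrations; endpoints were interpolated linearly between bracketing concentrations, or set to the highest concentration if not reached. TGI is the concentration that stops growth completely.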

Some test systems named below: T-47D breast; SR leukemia; TK-10 renal; MDA-MB-231 breast; CCRF-CEM leukemia; MCF7 breast; HCC-2998 colon; SK-MEL-2 melanoma; LOX IMVI melanoma; MDA-N; NCI-H23 lung; MDA-MB-435; OVCAR-4 ovarian; NCI-H522 lung; DU-145 prostate; SF-539 CNS; M14 melanoma; PC-3 prostate; ACHN renal.
Common to all, as to test: NCI anticancer screen, dose series, 48 h

For `COc1ccc(/C=C2\C(=O)N(C)C(=O)c3cc(OC)c(OC)cc32)cc1OC`, the TGI in the experiment with T-47D breast is more than 100 µM; with SR leukemia, 55.5 µM; with TK-10 renal, more than 100 µM; in the experiment on MDA-MB-231 breast, more than 100 µM; in the experiment on CCRF-CEM leukemia, 69.7 µM; in the experiment on MCF7 breast, more than 100 µM. The TGI was more than 100 µM in the experiment on HCC-2998 colon; more than 100 µM in the experiment with SK-MEL-2 melanoma; 34.1 µM in the experiment with LOX IMVI melanoma; 75.2 µM in the experiment with MDA-N; more than 100 µM with NCI-H23 lung; more than 100 µM in the experiment with MDA-MB-435. The TGI is more than 100 µM in the experiment with OVCAR-4 ovarian; 36.4 µM in the experiment with NCI-H522 lung; more than 100 µM in the experiment on DU-145 prostate; 76.2 µM in the experiment on SF-539 CNS; more than 100 µM in the experiment on M14 melanoma; more than 100 µM in the experiment with PC-3 prostate. Further, the TGI in the experiment with ACHN renal was more than 100 µM.

As for `Cn1c(-c2cccs2)cc(-c2ccccc2)c1-c1cccs1`, the TGI with T-47D breast, with SR leukemia, in the experiment on TK-10 renal, with MDA-MB-231 breast, with CCRF-CEM leukemia and in the experiment with MCF7 breast was more than 100 µM in each case. Besides, the TGI in the experiment on HCC-2998 colon, in the experiment on SK-MEL-2 melanoma, in the experiment on LOX IMVI melanoma, in the experiment on MDA-N, with NCI-H23 lung and with MDA-MB-435 was more than 100 µM each time. The TGI in the experiment on OVCAR-4 ovarian, in the experiment with NCI-H522 lung, with DU-145 prostate, with SF-539 CNS, with M14 melanoma and in the experiment with PC-3 prostate was more than 100 µM throughout. The compound further came in with a TGI with ACHN renal of more than 100 µM.

Regarding `C=C1[C@H](OC(=O)C(C)C)[C@]23CC4(O)[C@@H]5[C@@]6(C)CCC[C@]57C([C@@H]2C[C@@]1(O)[C@H](O)[C@@H]73)N4C6`, the TGI with T-47D breast, in the experiment on SR leukemia, with TK-10 renal, with MDA-MB-231 breast, with CCRF-CEM leukemia and in the experiment on MCF7 breast was more than 100 µM each time. Moreover, the TGI with HCC-2998 colon is 72.3 µM; in the experiment on SK-MEL-2 melanoma, more than 100 µM; with LOX IMVI melanoma it was more than 100 µM; with MDA-N it was more than 100 µM; in the experiment with NCI-H23 lung, more than 100 µM; with MDA-MB-435, more than 100 µM. In addition, the TGI in the experiment on OVCAR-4 ovarian, with NCI-H522 lung, with DU-145 prostate, in the experiment with SF-539 CNS, in the experiment on M14 melanoma and in the experiment with PC-3 prostate was more than 100 µM in each case. The same compound registered a TGI with ACHN renal of more than 100 µM.

As to `COc1cc(OC)cc(OCc2ccc3nc(-c4ccccc4)c(Cl)nc3c2)c1`, the TGI is more than 100 µM in the experiment with T-47D breast; 48 µM with SR leukemia; 55.6 µM in the experiment with TK-10 renal; 30.5 µM in the experiment on MDA-MB-231 breast; more than 100 µM with CCRF-CEM leukemia; more than 100 µM in the experiment with MCF7 breast. Moreover, the TGI with HCC-2998 colon, with SK-MEL-2 melanoma, in the experiment with LOX IMVI melanoma, in the experiment on MDA-N, with NCI-H23 lung and with MDA-MB-435 was more than 100 µM in each case. Besides, the TGI was more than 100 µM in the experiment with OVCAR-4 ovarian; 20.3 µM with NCI-H522 lung; more than 100 µM in the experiment with DU-145 prostate; 49.9 µM in the experiment with SF-539 CNS; more than 100 µM in the experiment with M14 melanoma; more than 100 µM with PC-3 prostate. The same compound showed a TGI with ACHN renal of more than 100 µM.

Turning to `CC(=O)NNc1nc(C)c(C(/C=C/c2ccc([N+](=O)[O-])cc2)=N/N)s1`, the TGI in the experiment with T-47D breast is more than 100 µM; with SR leukemia it was more than 100 µM; in the experiment on TK-10 renal, more than 100 µM; in the experiment on MDA-MB-231 breast, 95.4 µM; in the experiment with CCRF-CEM leukemia, more than 100 µM; in the experiment on MCF7 breast it was more than 100 µM. Besides, the TGI in the experiment with HCC-2998 colon, in the experiment with SK-MEL-2 melanoma, in the experiment on LOX IMVI melanoma, in the experiment with MDA-N, with NCI-H23 lung and in the experiment on MDA-MB-435 was more than 100 µM throughout. Moreover, the TGI in the experiment with OVCAR-4 ovarian, in the experiment on NCI-H522 lung, in the experiment on DU-145 prostate, in the experiment with SF-539 CNS, in the experiment with M14 melanoma and in the experiment on PC-3 prostate was more than 100 µM in each case. The compound also yielded a TGI in the experiment on ACHN renal of more than 100 µM.

`N#CC(c1ccnc(Cl)n1)c1nc2ccccc2s1` (centres undefined): the TGI was 22.4 µM in the experiment with T-47D breast; 28.7 µM with SR leukemia; more than 60.7 µM in the experiment with TK-10 renal; 12.3 µM with MDA-MB-231 breast; 0.928 µM in the experiment with CCRF-CEM leukemia; 40.6 µM in the experiment on MCF7 breast. For the same compound, the TGI in the experiment on HCC-2998 colon is 46.8 µM; in the experiment on SK-MEL-2 melanoma, 28.1 µM; in the experiment on LOX IMVI melanoma, more than 33.9 µM; in the experiment on MDA-N, 12.9 µM; in the experiment with NCI-H23 lung it was 15.6 µM; in the experiment on MDA-MB-435, more than 100 µM. In addition, the TGI in the experiment on OVCAR-4 ovarian was more than 100 µM; in the experiment on NCI-H522 lung, 11.1 µM; with DU-145 prostate it was more than 100 µM; in the experiment with SF-539 CNS, 15.1 µM; with M14 melanoma, 20.4 µM; in the experiment with PC-3 prostate, 26 µM. This compound had a TGI in the experiment with ACHN renal of more than 94 µM.
